The values that follow come from PMC10858940, “Repositioning baloxavir marboxil as VISTA agonist that ameliorates experimental asthma” (Cell Biology and Toxicology, 2024).

For test [1], the target named is T1, VISTA (V-type immunoglobulin domain–containing suppressor of T-cell activation) (Homo sapiens, UniProt Q9H7M9).
T1 construct: gene VSIR; human VISTA-ECD protein
T1 sequence (Q9H7M9 33-194): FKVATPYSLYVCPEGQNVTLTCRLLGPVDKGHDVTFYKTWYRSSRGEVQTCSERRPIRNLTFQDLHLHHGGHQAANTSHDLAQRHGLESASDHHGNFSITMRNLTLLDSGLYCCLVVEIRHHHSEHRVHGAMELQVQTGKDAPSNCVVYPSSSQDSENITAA
Briefly: SPR (Biacore T200, human VISTA immobilized on CM5 chip). It counts as binding. On the technique in general: SPR reads the build-up and loss of mass on a sensor chip optically.

The target in test [2] is T2, VISTA (V-type immunoglobulin domain–containing suppressor of T-cell activation) (Homo sapiens, UniProt Q9H7M9).
T2 construct: gene VSIR; human VISTA protein
T2 sequence (Q9H7M9 33-194 limits assumed): T1 sequence (Q9H7M9 33-194)
The test is described as above. It counts as binding.

Read-outs that look alike come from different tables or passages of the source.

The Kd is the concentration at which binding is half-saturated. Read a high Kd as lower affinity.

Take `O=C1c2c(O)c(=O)ccn2N([C@@H]2c3ccccc3SCc3c2ccc(F)c3F)[C@@H]2COCCN12` [BXA, baloxavir acid]: the Kd in test [1] was 210 nM.
`COC(=O)OCOc1c2n(ccc1=O)N([C@@H]1c3ccccc3SCc3c1ccc(F)c3F)[C@@H]1COCCN1C2=O` [BXM, baloxavir marboxil] displayed a Kd in test [2] of 1070 nM.
